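Following 48 hours of exposure in 96-well plates, responses at five concentrations were used to interpolate endpoints linearly. At the GI50, growth is halved. TGI is the concentration that stops growth completely.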
Tests used:
Experiment in all cases: inhibition of tumour cell growth, NCI panel, 48 h
[1] = system: A549 NSCLC
[2] = system: EKVX NSCLC
[3] = system: KM12 colon
[4] = system: OVCAR-8 ovarian
[5] = system: RXF 393 renal
[6] = system: SK-MEL-2 melanoma
[7] = system: SK-MEL-28 melanoma
[8] = system: SNB-19 CNS
[9] = system: SW-620 colon
[10] = system: ACHN renal

Row | Structure (SMILES) | TGI [1] | TGI [2] | TGI [3] | TGI [4] | TGI [5] | TGI [6] | TGI [7] | TGI [8] | TGI [9] | TGI [10] | GI50 [1] | GI50 [10] | GI50 [2] | GI50 [3] | GI50 [4] | GI50 [5] | GI50 [6] | GI50 [7] | GI50 [8] | GI50 [9]
1 | CC1(CO)C(O)CCC2(C)C1C(O)CC1CC3CC12CCC3(O)CO (stereo not given) | > 225 µM | > 225 µM | > 225 µM | > 225 µM | > 225 µM | > 225 µM | > 225 µM | > 225 µM | > 225 µM | – | – | – | – | – | – | – | – | – | – | –
2 | O=c1ccn(Cc2ccccc2CCl)c(=O)[nH]1 | > 100 µM | 59.6 µM | 83.3 µM | 55.8 µM | 53.5 µM | 89 µM | > 100 µM | > 100 µM | > 100 µM | 75.6 µM | – | – | – | – | – | – | – | – | – | –
3 | Fc1ccc(Nc2ncc(-c3cc(F)c(Cl)cc3Cl)s2)cc1Cl | 31.3 µM | 31.3 µM | 13.3 µM | 64.2 µM | 24.3 µM | 57.9 µM | > 100 µM | > 100 µM | 24.9 µM | 51.5 µM | 14.9 µM | 19.3 µM | 16.3 µM | 2.69 µM | 20.1 µM | 6.67 µM | 22.8 µM | 79.9 µM | > 100 µM | 5.47 µM
4 | CC(=O)Nc1c2sscc-2n(C)c1=O | 3.56 µM | 3.68 µM | 2.6 µM | 1.36 µM | 3.18 µM | 3.36 µM | 2.69 µM | 3.45 µM | 1.83 µM | 12.1 µM | – | – | – | – | – | – | – | – | – | –
5 | OCC(O)C(O)C(O)C(O)CNCCO/N=C1/C(c2c(O)[nH]c3ccccc23)=Nc2ccccc21 (stereo not given) | > 50 µM | > 50 µM | > 50 µM | > 50 µM | 39.2 µM | 15.7 µM | 20.7 µM | 35.9 µM | > 50 µM | > 50 µM | – | – | – | – | – | – | – | – | – | –
6 | O=C(CC(Cc1ccccc1)c1ccc(Oc2ccccc2)cc1)Nc1cccc(Cl)c1 (stereo not given) | > 100 µM | > 100 µM | > 100 µM | > 100 µM | 62.8 µM | 13.6 µM | > 100 µM | > 100 µM | > 100 µM | 27.1 µM | – | – | – | – | – | – | – | – | – | –
7 | COc1ccc(C2CC(c3ccc(NS(=O)(=O)c4cc([N+](=O)[O-])ccc4C)cc3)=NN2S(=O)(=O)c2cc([N+](=O)[O-])ccc2C)cc1 (stereo not given) | > 100 µM | > 100 µM | > 100 µM | > 100 µM | > 100 µM | > 100 µM | > 100 µM | > 100 µM | > 100 µM | > 100 µM | – | – | – | – | – | – | – | – | – | –
8 | N#CC(NNC(=O)c1c(Cl)c(Cl)c(Cl)c(Cl)c1-c1nc2ccc(C(=O)c3ccccc3)cc2[nH]1)c1ccccc1 (stereo not given) | > 100 µM | > 100 µM | > 100 µM | > 100 µM | 22.8 µM | 58.1 µM | > 100 µM | 99.2 µM | > 100 µM | > 100 µM | – | – | – | – | – | – | – | – | – | –
9 | O=[N+]([O-])c1ccc(NNN=Nc2ccc(-c3nc4ccccc4[nH]3)cc2)c([N+](=O)[O-])c1 | > 100 µM | 96.4 µM | > 100 µM | > 100 µM | > 100 µM | 88.6 µM | > 100 µM | > 100 µM | > 100 µM | > 100 µM | – | – | – | – | – | – | – | – | – | –
10 | COc1ccc(/C=C2\C[C@H]3[C@@H]4CC=C5C[C@@H](OC(C)=O)CC[C@]5(C)[C@H]4CC[C@]3(C)C2=O)cc1OC | > 100 µM | 66.5 µM | > 100 µM | > 100 µM | > 100 µM | > 100 µM | > 100 µM | > 100 µM | > 100 µM | > 100 µM | – | – | – | – | – | – | – | – | – | –
11 | COC1=CC(=O)c2c(c(COC(C)=O)cn2C)C1=O | 0.509 µM | 0.727 µM | 0.763 µM | 0.313 µM | 0.309 µM | 0.373 µM | 0.516 µM | 8.18 µM | 0.193 µM | 0.173 µM | – | – | – | – | – | – | – | – | – | –
12 | C1=Nc2ccccc2Cn2nncc21 | > 100 µM | > 100 µM | > 100 µM | > 100 µM | > 100 µM | > 100 µM | > 100 µM | > 100 µM | > 100 µM | > 100 µM | – | – | – | – | – | – | – | – | – | –
13 | CC(C)NC(=O)OCc1nnn2c1CCC2 | > 100 µM | > 100 µM | > 100 µM | > 100 µM | > 100 µM | > 100 µM | > 100 µM | – | > 100 µM | > 100 µM | – | – | – | – | – | – | – | – | – | –
14 | COc1ccc(N2C(=O)C(=O)N(C)C2=O)c2ccccc12 | > 10 µM | > 10 µM | > 10 µM | > 10 µM | > 10 µM | > 10 µM | > 10 µM | > 10 µM | > 10 µM | > 10 µM | – | – | – | – | – | – | – | – | – | –
15 | OC(c1ccccc1)C1CC2C=CC1C2 (stereo not given) | > 100 µM | > 100 µM | > 100 µM | > 100 µM | > 100 µM | > 100 µM | > 100 µM | > 100 µM | > 100 µM | > 100 µM | – | – | – | – | – | – | – | – | – | –
16 | O=[N+]([O-])c1ccc(Cc2nc3cc4ccccc4cc3[nH]2)cc1C(F)(F)F | 64.8 µM | > 100 µM | 30.3 µM | 48.5 µM | 32.1 µM | 44.4 µM | > 100 µM | 39 µM | 62.2 µM | 29.3 µM | – | – | – | – | – | – | – | – | – | –
17 | Clc1ccc(C2CC(c3cccc(Nc4ccncc4)c3)=NN2c2ccccc2)cc1 (stereo not given) | – | 3.12 µM | 3.28 µM | – | 3.08 µM | 3.84 µM | 3.24 µM | 3.18 µM | 3.34 µM | 3.02 µM | – | 1.66 µM | 1.58 µM | 1.7 µM | – | 1.67 µM | 1.98 µM | 1.77 µM | 1.71 µM | 1.67 µM
18 | COc1cc(/C=N/N=C(\N)NO)ccc1O | > 100 µM | > 100 µM | > 100 µM | > 100 µM | > 100 µM | > 100 µM | > 100 µM | > 100 µM | > 100 µM | > 100 µM | – | – | – | – | – | – | – | – | – | –
19 | CC(C)C(=O)Nc1ccc(-c2nc(-c3cccc(OCCN4CCOCC4)c3)c(-c3ccnc(Br)c3)[nH]2)cc1 | > 100 µM | > 100 µM | > 100 µM | > 100 µM | 2.91 µM | 5.54 µM | 5.02 µM | > 100 µM | 8.59 µM | 94.1 µM | 3.73 µM | 3.87 µM | 4.01 µM | 3.2 µM | 4.16 µM | 1.24 µM | 2.21 µM | 1.98 µM | 3.46 µM | 2.87 µM
20 | CC(C)(C)CNCCCNc1ccc(Cl)cc1 | > 100 µM | > 100 µM | > 100 µM | > 100 µM | 74.3 µM | > 100 µM | 44.3 µM | > 100 µM | > 100 µM | > 100 µM | – | – | – | – | – | – | – | – | – | –
21 | Fc1cc(C2=Nn3c(CNc4ccc(Cl)cc4)nnc3S/C2=C\c2ccc(-c3ccc(Cl)cc3)o2)c(Cl)cc1Cl | > 100 µM | 67.8 µM | > 100 µM | > 100 µM | 61.4 µM | > 100 µM | > 100 µM | > 100 µM | > 100 µM | > 100 µM | – | – | – | – | – | – | – | – | – | –
22 | O=C(c1cc(Cl)cc(Cl)c1)N(Cc1cccnc1)C(=S)N(Cc1cccnc1)C(=O)c1cc(Cl)cc(Cl)c1 | > 100 µM | > 100 µM | > 100 µM | 79.5 µM | 92.7 µM | 99.2 µM | > 100 µM | > 100 µM | > 100 µM | 47.3 µM | – | – | – | – | – | – | – | – | – | –
23 | CNCCCn1c2c(c3ccc(Cl)cc3c1=O)C(=O)c1cc(OC)cnc1-2 | – | – | 2.43 µM | 3.5 µM | 2.84 µM | 33.4 µM | 3.15 µM | 2.26 µM | 1.98 µM | 1.58 µM | – | 0.224 µM | – | 1.1 µM | 1.18 µM | 1.3 µM | 13.2 µM | 1.62 µM | 0.614 µM | 0.0762 µM
24 | CSC1=C(SC)C(=O)c2cn(C)c(=O)cc2C1=O | 36.9 µM | 33.6 µM | 48.3 µM | > 70.9 µM | 3.43 µM | 17.1 µM | 6.69 µM | 31.1 µM | 2.58 µM | 3.32 µM | – | – | – | – | – | – | – | – | – | –
25 | O=c1ccc2c(Cl)cccc2o1 | > 100 µM | > 100 µM | > 100 µM | > 100 µM | > 100 µM | > 100 µM | > 100 µM | > 100 µM | > 100 µM | > 100 µM | – | – | – | – | – | – | – | – | – | –

— PubChem BioAssay (NCI)
